Assay results taken from patent publication US20260083865A1, “PROSTATE SPECIFIC MEMBRANE ANTIGEN (PSMA) LIGANDS AND USE THEREOF” (priority 2022, published 2026).
Like-named read-outs stand apart in the source and are kept apart here. Numbered stars: 1 amine (or outer) side, 2 acyl side, 3 side chain; on linkers, the order of the positions; unused ones are H or OH. Bridge positions count the residues as written; N and C are the ends. Square brackets hold non-standard residues; d marks the D form. Peptide text beside a SMILES is read from it. * marks the point of attachment. NH(CH2)5NHDOTA = O=C(O)CN1CCN(CC(=O)O)CCN(CC(=O)NCCCCCN*)CCN(CC(=O)O)CC1; X3 = O=C(O)CN1CCN(CC(=O)O)CCN(CC(=O)NCCCOCCOCCOCCCN*)CCN(CC(=O)O)CC1; DOTA = O=C(O)CN1CCN(CC(=O)O)CCN(CC(=O)*)CCN(CC(=O)O)CC1; Phe(3-Cl) = N[C@@H](Cc1cccc(Cl)c1)C(=O)O; Phe(4-Cl) = N[C@@H](Cc1ccc(Cl)cc1)C(=O)O; Propanoyl(3-SO2NH2) = NS(=O)(=O)CCC(=O)*; X1 = O=C(CC1CCN([*:1])CC1)[*:2]; Cit = NC(=O)NCCC[C@H](N)C(=O)O; Suc = O=C(CCC(=O)[*:2])[*:1]; Tle = CC(C)(C)[C@H](N)C(=O)O; Aib = CC(C)(N)C(=O)O

Tests used:
[1] = target: T1, Fc-fusion protein of human PSMA (hPSMA-Fc) (Homo sapiens, UniProt Q04609); assay: Surface plasmon resonance assay (Biacore T200, single cycle kinetic); type: binding; settings: hPSMA-Fc, 25° C., read-out: pKD CAT (converted)
T1 construct: purchased Acro Biosystems PSA-H5264
Summary of the method: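 hPSMA-Fc was captured (~1000 RU) on an Fc-binding-peptide CM5 chip, and compounds were run in single cycle kinetic mode at 25° C in HBST with 0.1% DMSO. Double-blank-corrected sensorgrams were fitted to a 1:1 Langmuir model to give KD, reported as pKD.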

[2] = target: T2, PSMA-expressing C4-2 cells (Homo sapiens, UniProt Q04609); assay: FACS binding assay (competition with 50 nM PSM-0183); settings: read-out: pIC50 [C4-2] CAT (converted)
T2 construct: PSMA-expressing C4-2 cells (ATCC, Cat. No. CRL-3314) were cultured in RPMI-1640; host or cells: C4-2 cells
Summary of the method: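 C4-2 cells were incubated 1 h at 4 °C with 50 nM AF488-labelled peptide PSM-0183 plus increasing test compound concentrations, then washed twice in ice-cold buffer. Median fluorescence in the AF488 channel was read by flow cytometry. IC50/pIC50 was derived by 4PL fitting of MFI versus concentration.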

[3] = pKD category for PSMA SPR activity assay
[4] = pIC50 category of FACS binding, C4-2 cells
[5] = FACS binding, PSMA-expressing C4-2 cells, pIC50 category

T1 sequence (Q04609 44-750 limits assumed): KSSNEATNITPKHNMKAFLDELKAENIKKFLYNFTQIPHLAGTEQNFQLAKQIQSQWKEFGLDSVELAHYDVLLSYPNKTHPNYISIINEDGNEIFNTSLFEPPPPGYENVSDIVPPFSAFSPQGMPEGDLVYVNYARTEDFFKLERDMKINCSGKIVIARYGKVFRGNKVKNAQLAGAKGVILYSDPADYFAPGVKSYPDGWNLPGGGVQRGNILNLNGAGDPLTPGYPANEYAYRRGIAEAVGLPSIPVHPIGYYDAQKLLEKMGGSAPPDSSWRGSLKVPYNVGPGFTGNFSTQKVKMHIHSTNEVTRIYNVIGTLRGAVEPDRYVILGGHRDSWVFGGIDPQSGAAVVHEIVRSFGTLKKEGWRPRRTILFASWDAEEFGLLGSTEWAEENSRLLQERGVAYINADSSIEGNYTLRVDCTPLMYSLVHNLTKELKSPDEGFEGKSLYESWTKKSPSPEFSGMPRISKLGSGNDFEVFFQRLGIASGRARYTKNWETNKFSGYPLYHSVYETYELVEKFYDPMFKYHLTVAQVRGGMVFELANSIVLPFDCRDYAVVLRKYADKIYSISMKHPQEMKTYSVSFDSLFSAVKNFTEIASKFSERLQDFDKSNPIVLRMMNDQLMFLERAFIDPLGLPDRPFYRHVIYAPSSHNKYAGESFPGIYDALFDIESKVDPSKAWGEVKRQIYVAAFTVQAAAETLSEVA
T2 sequence (Q04609 whole entry): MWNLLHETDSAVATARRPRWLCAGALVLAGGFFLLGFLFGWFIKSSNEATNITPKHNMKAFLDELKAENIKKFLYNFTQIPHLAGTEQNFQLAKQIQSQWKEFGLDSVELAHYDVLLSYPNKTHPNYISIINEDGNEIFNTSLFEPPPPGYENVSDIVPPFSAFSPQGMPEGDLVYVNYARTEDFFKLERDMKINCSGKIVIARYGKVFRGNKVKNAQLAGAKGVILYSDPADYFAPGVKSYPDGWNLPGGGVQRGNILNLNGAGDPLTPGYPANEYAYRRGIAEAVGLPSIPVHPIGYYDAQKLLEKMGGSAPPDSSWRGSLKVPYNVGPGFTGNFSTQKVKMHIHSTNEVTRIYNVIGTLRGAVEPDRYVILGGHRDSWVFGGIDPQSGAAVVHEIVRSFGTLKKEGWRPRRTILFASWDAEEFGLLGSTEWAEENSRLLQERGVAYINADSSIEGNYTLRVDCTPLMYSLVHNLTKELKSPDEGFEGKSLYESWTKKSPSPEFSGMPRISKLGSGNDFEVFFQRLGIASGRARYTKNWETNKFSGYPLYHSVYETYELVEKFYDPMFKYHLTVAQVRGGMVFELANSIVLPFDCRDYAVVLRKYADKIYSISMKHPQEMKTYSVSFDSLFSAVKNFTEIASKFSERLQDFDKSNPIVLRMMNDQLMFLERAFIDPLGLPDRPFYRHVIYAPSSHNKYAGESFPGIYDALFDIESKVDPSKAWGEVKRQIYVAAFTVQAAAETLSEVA

Compound | Kd [1, 3] [nM] | IC50 [2, 4] [nM] | Kd ([1]; PSMA SPR assay, pKD category) [nM] | IC50 [2, 5] [nM] | also measured
C[C@@H](O)[C@H](NC(=O)[C@@H](NC(=O)[C@@H]1CSSC[C@H](NC(=O)[C@H](Cc2ccccc2)NC(=O)C(C)(C)NC(=O)[C@@H](NC(=O)CCC(=O)NCCCOCCOCCOCCCNC(=O)CN2CCN(CC(=O)O)CCN(CC(=O)O)CCN(CC(=O)O)CC2)[C@@H](C)O)C(=O)N[C@@H](CCCCN)C(=O)N[C@@H](CCCNC(=N)N)C(=O)NC(C)(C)C(=O)N[C@@H](CC(N)=O)C(=O)N1)C(C)(C)C)C(N)=O [PSM-0259, DOTA-Ttds-Thr-Aib-Phe-[Cys-Lys-Arg-Aib-Asn-Cys]-Tle-Thr-NH2] ({X3-Suc}-T[Aib]FCKR[Aib]NC[Tle]T-NH2; disulfide 4-9) |  |  |  |  | Kd ([1]; SPR, single cycle kinetic, category): < 12.6 nM; IC50 ([2]; FACS binding, C4-2 cells, competition with 50 nM PSM-0183, category): < 200 nM
CC(=O)N[C@H](C(=O)NC(C)(C)C(=O)N[C@@H](Cc1ccccc1)C(=O)N[C@H]1CSSC[C@@H](C(=O)N[C@H](C(=O)N[C@H](C(=O)NCCCCCNC(=O)CN2CCN(CC(=O)O)CCN(CC(=O)O)CCN(CC(=O)O)CC2)[C@@H](C)O)C(C)(C)C)NC(=O)[C@H](CC(N)=O)NC(=O)C(C)(C)NC(=O)[C@H](CCCNC(=N)N)NC(=O)[C@H](CCCCN)NC1=O)[C@@H](C)O [PSM-0391, Ac-Thr-Aib-Phe-[Cys-Lys-Arg-Aib-Asn-Cys]-Tle-Thr-Ape-DOTA] (Ac-T[Aib]FCKR[Aib]NC[Tle]T-{NH(CH2)5NHDOTA}; disulfide 4-9) | < 12.6 | < 200 |  |  | 
CC(=O)N[C@H](C(=O)NC(C)(C)C(=O)N[C@@H](Cc1cccc(Cl)c1)C(=O)N[C@H]1CSSC[C@@H](C(=O)N[C@H](C(=O)N[C@H](C(=O)N2CCC(CC(=O)N[C@H](CCCCNC(=O)CN3CCN(CC(=O)O)CCN(CC(=O)O)CCN(CC(=O)O)CC3)C(N)=O)CC2)[C@@H](C)O)C(C)(C)C)NC(=O)[C@H](CC(N)=O)NC(=O)C(C)(C)NC(=O)[C@H](CCCNC(=N)N)NC(=O)[C@H](CCCCN)NC1=O)[C@@H](C)O [PSM-0486, Ac-Thr-Aib-Mcf-[Cys-Lys-Arg-Aib-Asn-Cys]-Tle-Thr-Cmp-lys(DOTA)-NH2] (Ac-T[Aib][Phe(3-Cl)]CKR[Aib]NC[Tle]T[X1][dK](DOTA)-NH2; disulfide 4-9) | < 12.6 | < 200 |  |  | 

Now from value to compound, other results behind:

Kd [1, 3] [nM] | IC50 [2, 4] [nM] | Kd ([1]; PSMA SPR assay, pKD category) [nM] | IC50 [2, 5] [nM] | Compound | also measured
 |  | < 12.6 | < 200 | C[C@@H](O)[C@H](NC(=O)[C@@H](NC(=O)[C@@H]1CSSC[C@H](NC(=O)[C@H](Cc2ccc(Cl)cc2)NC(=O)C(C)(C)NC(=O)CCS(N)(=O)=O)C(=O)N[C@@H](CCCCN)C(=O)N[C@@H](CCCNC(=N)N)C(=O)NC(C)(C)C(=O)N[C@@H](CC(N)=O)C(=O)N1)C(C)(C)C)C(=O)N[C@H](CCCCNC(=O)CN1CCN(CC(=O)O)CCN(CC(=O)O)CCN(CC(=O)O)CC1)C(N)=O [PSM-0328, SaPr-Aib-Pcf-[Cys-Lys-Arg-Aib-Asn-Cys]-Tle-Thr-lys(DOTA)-NH2] ({Propanoyl(3-SO2NH2)}-[Aib][Phe(4-Cl)]CKR[Aib]NC[Tle]T[dK](DOTA)-NH2; disulfide 3-8) | 
 |  | 12.6 to 126 | < 200 | CC(=O)N[C@H](C(=O)NC(C)(C)C(=O)N[C@@H](Cc1ccc(Cl)cc1)C(=O)N[C@H]1CSSC[C@@H](C(=O)N[C@H](C(=O)N[C@H](C(=O)N2CCC(CC(=O)N[C@H](CCCCNC(=O)CN3CCN(CC(=O)O)CCN(CC(=O)O)CCN(CC(=O)O)CC3)C(N)=O)CC2)[C@@H](C)O)C(C)(C)C)NC(=O)[C@H](CC(N)=O)NC(=O)C(C)(C)NC(=O)[C@H](CCCNC(N)=O)NC(=O)[C@H](CCCCN)NC1=O)[C@@H](C)O [PSM-0329, Ac-Thr-Aib-Pcf-[Cys-Lys-Cit-Aib-Asn-Cys]-Tle-Thr-Cmp-lys(DOTA)-NH2] (Ac-T[Aib][Phe(4-Cl)]CK[Cit][Aib]NC[Tle]T[X1][dK](DOTA)-NH2; disulfide 4-9) | 
